Assay results taken from US4966169A, “Process for manufacturing cigarettes” (priority 1988, dated 1990).
Entries after “also recorded” stand apart in the source; their conditions may differ. Read-outs that look alike come from different tables or passages of the source.

Key:
[1] = cited from earlier work
rats = details: cited from earlier work
bronchial epithelium [2] = assay: Examples 2 and 3: cyclohexanol vapor inhalation, whole-body autoradiography after [14C] NNN; type: in vivo, C57BL/6J mouse; details: inhaled 5 min
Protocol: The mouse was kept in the closed beaker for about five minutes as the bottom of the beaker was maintained at 50° C. in a water bath. […] Handbook of Chemistry and Physics (1979) at D-203 to D-217.
One hour later, the mouse was anesthetized lightly by ether and frozen by immersion in dry ice/hexane. […] Control experiments were conducted for comparison purposes and radioactivity was detected in the respiratory epithelium in the controls.
Example 2 was duplicated, except that the mouse was kept in the closed beaker for five minutes as the bottom of the beaker was maintained at 26° C. in a water bath. […] After injection as in Example 2, the mouse was processed in the same manner as in Example 2.

human exposure [3] = assay: OSHA time weighted average (TWA) exposure limit; details: TWA 200 mg/m^3
From the text: On the other hand, the quantity of alcohol transferred and inhaled by the smoker must be at a safe amount and less than the maximum volumetric concentrations permitted for each alcohol by any applicable government regulation, such as in the United States those of the U.S. Occupational Safety and Health Administration (OSHA) Time Weighted Average (TWA). Other helpful guidelines are published by the Flavoring Extract Manufacturers' Association (Generally Regarded As Safe list), and the Hunter Committee from Great Britain. If a substance has not been evaluated in the literature, the toxicity of that substance (alcohol) should be evaluated before use. Compounds or alcohols herein are analyzed individually and the toxicity of a mixture of compounds is assumed to be the toxicity of the most toxic individual substance in the compound. It is expected that 1-1000 micrograms (and more particularly approximately 800 micrograms) of the blocking alcohol(s) would be needed on the rag tobacco for a cigarette containing 400-1200 milligrams (and more particularly approximately 800 milligrams) of tobacco. Yet another way of defining the quantity of alcohol is its concentration in air, which should be about 0.1% to 0.001% (see Example 3, supra). […]

human exposure [4] = details: cited from earlier work
[5] = system: nitrosamines such as NNN and metabolites thereof in mammalian tissues; assay: Inhibition of selective localization of nitrosamines (general statements); type: in vivo; details: qualitative statement
rodents = details: cited from earlier work; for carcinogenicity: rat, in vivo
tissue macromolecules = details: cited from earlier work; for metabolic activation: rats, hamsters and monkeys; for binding of metabolites to macromolecules: tracheobronchial and nasal mucosa, kidney, liver, sublingual and submaxillary glands, esophagus, melanin of the eye
[6] = system: formation of nitrosamines on epithelial membranes; details: cited from earlier work
bronchial epithelium [7] = assay: Example 1: whole-body autoradiography, inhibition of localization of [14C] NNN radioactivity in bronchial epithelium; type: in vivo, C57BL/6J mice; details: for dose relation of reduction in photometric density: oral alcohols
Protocol: (§1) One hour later, the mice were anesthetized lightly with ether and frozen by immersion in dry ice/hexane. Twenty u-thick whole-body sagittal sections of the frozen mice were taken onto Scotch tape and were then processed for whole-body autoradiography by known methods. See W. Waddell et al, Drug Fate and Metabolism: Methods and Techniques, E.R. Garrett and J. L. Hirtz, Eds. […] Photometric density in areas of the developed autoradiographs was measured with an ADG Instruments photometer and a photocell with an aperture of three mm lying on the easel of a photographic enlarger. The X-ray film was placed in the enlarger and raised to produce a magnification of thirty-five times on the easel.
(§2) NNN. […] (Twenty minutes is the average time it takes for alcohols introduced by oral intubation into mice to reach the peak blood level.)
(§3) The number within each bar thereof represents the dose in g/kg of that alcohol which was administered orally twenty minutes before the [^14 C] NNN was given intravenously. The mice were frozen one hour after receiving the [^14 C] NNN. The means for each mouse were from fifteen measurements on random areas of that site (five absorbancies on each of three autoradiographs) after setting blood in each on zero. The control value is the mean from six mice; the n-butanol at 1 g/kg is from two mice; the other means are from one mouse.

[8] = system: periportal and central areas of the liver; details: oral intubation 20 min before [14C] NNN
Protocol: as §1, §2, §3

salivary duct epithelium = details: oral intubation 20 min before [14C] NNN
Protocol: as §1, §2, §3

nitrosamine localization = assay: Examples 4 and 5: intraperitoneal imidazole, whole-body autoradiography after [14C] NNN; type: in vivo, C57BL/6J mouse
Protocol: An adult male C57BL/6J mouse was injected intraperitoneally with 0.02 ml/g body weight of a solution of imidazole in water. The imidazole solution concentration was such that 0.05 g of imidazole was delivered per kg of body weight. […] See Example 1.
Example 4 was duplicated except that the adult mouse was injected intraperitoneally with 0.02 ml/g body weight of a solution of imidazole in water, wherein the solution concentration was such that 0.25 g of imidazole was delivered per kg of body weight.

adult human = details: cited from earlier work
tumor development = details: cited from earlier work

## CC(O)CCO (stereo not drawn) [1,3 Butanediol]
[1]; 20° C.
  Vapor Pressure: .06 mmHg

## CCC(CC)CO [2-Ethyl butyl alcohol]
[1]; 20° C.
  Vapor Pressure: 0.9 mmHg

## CC(C)CC(C)O (stereo not drawn) [4-methyl-2-pentanol]
rats; rats, oral
  Acute Oral LD50: 2600 mg/kg

## CCCCCCC(C)O (stereo not drawn) [Capryl alcohol]
[1]; 32.8° C.
  Vapor Pressure: 1 mmHg

## CCCCCCCCCCCCCCCCO [Cetyl alcohol]
rats; rats, oral
  Acute Oral LD50: 20000 mg/kg
[1]; 122.7° C.
  Vapor Pressure: 1 mmHg

## OCC=Cc1ccccc1 [Cinnamyl alcohol]
[1]; 72.6° C.
  Vapor Pressure: 1 mmHg

## OC1CCCCC1 [Cyclohexanol]
Bronchial epithelium [2]; 26° C., 0.001% in air
  radioactivity in bronchial epithelium: No radioactivity was detected
Bronchial epithelium [2]; 50° C., 0.01% in air
  radioactivity in bronchial epithelium: No radioactivity was detected
Human exposure [3]
  concentration in cigarette smoke at TWA limit of OSHA: 63 micrograms/cigarette
Human exposure [4]; 8 h work day, 40 h work week
  Toxicity (TWA OSHA): 200 mg/m^3
Human exposure [4]; eight continuous hours
  atmosphere concentration considered safe by OSHA: two hundred
rats; rats, oral
  Acute Oral LD50: 2060 mg/kg
[1]; 21° C.
  Vapor Pressure: 1 mmHg

## CCCCCCCCCCCCO [Lauryl alcohol]
[1]; 91° C.
  Vapor Pressure: 1 mmHg

## CC1CCC(C(C)C)C(O)C1 (stereo not drawn) [Menthol, reference compound]
[5]
  inhibition of nitrosamine localization: does not have the nitrosamine blocking effect; also recorded: does not inhibit nitrosamine localization
rats; rat, in vivo, po
  Acute Oral LD50: 3180 mg/kg
[1]; 56° C.
  Vapor Pressure: 1 mmHg

## CN(CCCC(=O)c1cccnc1)N=O [NNK, 4(methylnitrosamino)-1-(3-pyridyl)-1-butanone]
rodents
  carcinogenicity: powerful environmental carcinogens
Tissue macromolecules
  metabolic activation: most likely starts with a-carbon hydroxylation
  binding of metabolites to macromolecules: bind to macromolecules

## O=NN1CCCC1c1cccnc1 (stereo not drawn) [NNN, Nnitrosonornicotine]
rodents; F-344 rats, drinking water
  tumor induction: esophageal tumors have been induced
rodents; nasal cavity, salivary duct, esophagus, bronchial epithelium and liver
  sites of tumor formation: induces tumor formation at five sites
rodents
  carcinogenicity: powerful environmental carcinogens
rodents; rodents, olfactory epithelium, lung, salivary glands
  carcinogenesis: induce carcinogenesis in the olfactory epithelium, lung, salivary glands
Tissue macromolecules; F-344 rat esophagus vs other tissues
  metabolism: preferentially catalyzes hydroxylation at the a-carbon of NNN adjacent to the pyridine ring
Tissue macromolecules
  metabolic activation: most likely starts with a-carbon hydroxylation
  binding of metabolites to macromolecules: bind to macromolecules
Tissue macromolecules; whole-body autoradiography, adult male C57BL/6J mice, [14C] NNN
  retention of radioactivity vs sites of tumor formation: striking correlation

## CC(C)(O)C(C)(C)O [Pinacol]
[1]; 44° C.
  Vapor Pressure: 1 mmHg

## CCCCCCCCCCCCCCCCCCO [Stearyl alcohol]
[1]; 50° C.
  Vapor Pressure: 1 mmHg

## O=C1O[C@H]([C@@H](O)CO)C(O)=C1O [Vitamin C]
[6]
  formation of nitrosamines on epithelial membranes: prevent the formation of nitrosamines

## S=C=NCc1ccccc1 [benzylisothiocyanate]
[5]
  inhibition of nitrosamine localization: found to delocalize nitrosamines

## C[S+](C)[O-] [dimethylsulfoxide (DMSO), dimethylsulfoxide]
[5]
  inhibition of nitrosamine localization: found to delocalize nitrosamines

## CCO [ethanol]
Bronchial epithelium [7]
  dose relation of reduction in photometric density: dose related
Bronchial epithelium [7]; oral intubation 20 min before [14C] NNN, ethanol 1 and 5 g/kg, butanols 0.2 and 1 g/kg
  reduction of localization of radioactivity in bronchial epithelium: reduced
[8]
  reduction of localization of radioactivity in periportal and central areas of the liver: reduced
Salivary duct epithelium
  reduction of localization of radioactivity in salivary duct epithelium: reduced
rats; rats, oral
  Acute Oral LD50: 14000 mg/kg

## c1c[nH]cn1 [imidazole]
Nitrosamine localization; 0.05 g/kg intraperitoneal, 20 min before [14C] NNN
  nitrosamine delocalization relative to control mouse: Significant nitrosamine delocalization
Nitrosamine localization; 0.25 g/kg intraperitoneal
  nitrosamine delocalization relative to control mouse: significant delocalization of nitrosamine
[5]
  inhibition of nitrosamine localization: found to delocalize nitrosamines

## CCCCCCCCCCO [n-Decyl alcohol]
[1]; 69.5° C.
  Vapor Pressure: 1 mmHg

## CCCCCCCCCO [n-Nonyl alcohol]
[1]; 59.5° C.
  Vapor Pressure: 1 mmHg

## CCCCCO [n-amyl, n-amyl alcohol]
rats; rat, in vivo, po
  Acute Oral LD50: 3030 mg/kg

## CCCCO [n-butanol]
Bronchial epithelium [7]
  dose relation of reduction in photometric density: dose related
rats; rats, oral
  Acute Oral LD50: 790 mg/kg

## CN1CCCC1c1cccnc1 (stereo not drawn) [nicotine]
Adult human
  estimated acutely fatal oral dose: one

## c1cn[nH]c1 [pyrazole]
[5]
  inhibition of nitrosamine localization: found to delocalize nitrosamines

## CC1=C(/C=C/C(C)=C/C=C/C(C)=C/CO)C(C)(C)CCC1 [retinol, reference compound]
rats; rat, in vivo, po
  Acute Oral LD50: 2000 mg/kg

## CC(C)(C)O [t-butanol]
Bronchial epithelium [7]; at the high dosage (1 g/kg), oral
  localization of [14C] NNN in bronchial epithelium: almost completely abolished
Bronchial epithelium [7]; comparison of ethanol, n-butanol, t-butanol
  inhibition ranking in bronchial epithelium (FIG. 1): greatest inhibition
Bronchial epithelium [7]
  dose relation of reduction in photometric density: dose related

## Dipropylene glycol monomethyl
[1]; 20° C.
  Vapor Pressure: .3 mmHg

## Methyl cyclohexanol
[1]; 30° C.
  Vapor Pressure: 1.5 mmHg

## Vitamin A
Tumor development
  tumor development: inhibit tumor development

## Vitamin E
[6]
  formation of nitrosamines on epithelial membranes: prevent the formation of nitrosamines
